The molecules below were run against KRas G12C (Homo sapiens, UniProt P01116, G12C) (assay: Cellular inhibition of KRas G12C measured by Phospho-ERK in NCI-H358 cells). Details: pERK(Thr202/Tyr204) normalized with GAPDH, NCI-H358 cells, 3 hours; read-out: IC50.
Format: cell-based
Protocol: Cells were plated in poly-D-Lysine coated 96-well plates at a concentration of 50,000 cells/well and allowed to attach for 8-12 hours. Diluted compounds were then added at a final concentration of 0.5% DMSO. After 3 hours, the medium was removed, 150 μL of 4% formaldehyde was added and the plates were incubated for 20 minutes. The plates were washed with PBS, and permeabilized using 150 μL of ice cold 100% methanol for 10 minutes. Non-specific antibody binding to the plates was blocked using 100 μL Licor Blocking Buffer (Li-Cor Biotechnology, Lincoln Nebr.) for 1 hour at room temperature. Positive control samples and samples lacking cells were parallel processed with test samples as standards.
The amount Phospho-ERK was determined using an antibody specific for the phosphorylated form of ERK and compared to the amount of GAPDH. […] The plates were incubated for 2 hours at room temperature. The plates were washed with PBS+0.05% Tween 20.
Secondary antibodies used to visualize primary antibodies were added as follows: Anti-rabbit-680 diluted 1:1000 and Anti-mouse-800 diluted 1:1000 in Licor Block+0.05% Tween 20 and incubated for 1 hour at room temperature. The plates were washed with PBS+0.05% Tween 20. A 100 μL aliquot of PBS was added to each well and the plates were read on a LICOR AERIUS plate reader.
The pERK(Thr202/Tyr204) signal was normalized with the GAPDH signal and percent of DMSO control values were calculated. IC50 values were generated using a 4 parameter fit of the dose response curve. Key: “A”≥0.0001-≤1 μM; “B”>1 μM and ND=not determined.

Chain of KRas G12C (P01116 1-188 isoform P01116-2 G12C): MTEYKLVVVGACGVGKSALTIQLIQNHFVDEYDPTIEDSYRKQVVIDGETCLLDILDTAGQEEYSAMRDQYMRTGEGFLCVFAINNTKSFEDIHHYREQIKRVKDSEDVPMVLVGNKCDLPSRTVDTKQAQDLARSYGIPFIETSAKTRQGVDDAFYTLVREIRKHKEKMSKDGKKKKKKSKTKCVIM

`C=CC(=O)N1CCN(c2nc(OC[C@@H]3CCCC(=O)N3)nc3c2CCN(c2cc(O)cc4ccccc24)C3)CC1` (single isomer, unassigned) [Example 61] and `C=CC(=O)N1CCN(c2nc(OC[C@H]3CCCC(=O)N3)nc3c2CCN(c2cc(O)cc4ccccc24)C3)CC1` (single isomer, unassigned) [Example 62] cannot be ordered by IC50: > 1000 nM for the first, > 1000 nM for the second.

`C=CC(=O)N1CCN(c2nc(OC[C@H](O)CN3CCOCC3)nc3c2CCN(c2cc(O)cc4ccccc24)C3)CC1` (single isomer, unassigned) [Example 215] and `C=CC(=O)N1CCN(c2nc(OC[C@@H](O)CN3CCOCC3)nc3c2CCN(c2cc(O)cc4ccccc24)C3)CC1` (single isomer, unassigned) [Example 216] cannot be ordered by IC50: > 1000 nM for the first, > 1000 nM for the second.

`C=CC(=O)N1CCN(c2ncnc3c2CCN(c2cc(O)cc4ccccc24)C3)CC1` [Example 1, 1-(4-(7-(3-hydroxynaphthalen-1-yl)-5,6,7,8-tetrahydropyrido[3,4-d]pyrimidin-4-yl)piperazin-1-yl)prop-2-en-1-one] and `C=CC(=O)N1CCN(c2ncnc3c2CCN(c2cccc4ccccc24)C3)CC1` [Example 3, 1-(4-(7-(naphthalen-1-yl)-5,6,7,8-tetrahydropyrido[3,4-d]pyrimidin-4-yl)piperazin-1-yl)prop-2-en-1-one] cannot be ordered by IC50: > 1000 nM for the first, > 1000 nM for the second.

`C=CC(=O)N1CCN(c2ncnc3c2CCN(c2c(O)cccc2F)C3)CC1` [Example 4, 1-(4-(7-(2-fluoro-6-hydroxyphenyl)-5,6,7,8-tetrahydropyrido[3,4-d]pyrimidin-4-yl)piperazin-1-yl)prop-2-en-1-one] and `C=CC(=O)N1CCN(c2ncnc3c2CCN(c2cc(O)ccc2F)C3)CC1` [Example 5, 1-(4-(7-(2-fluoro-5-hydroxyphenyl)-5,6,7,8-tetrahydropyrido[3,4-d]pyrimidin-4-yl)piperazin-1-yl)prop-2-en-1-one] cannot be ordered by IC50: > 1000 nM for the first, > 1000 nM for the second.

`C=CC(=O)N1CCN(c2ncnc3c2CC(C)N(c2cc(O)cc4ccccc24)C3)CC1` (centres unmarked) [Example 6, 1-(4-(7-(3-hydroxynaphthalen-1-yl)-6-methyl-5,6,7,8-tetrahydropyrido[3,4-d]pyrimidin-4-yl)piperazin-1-yl)prop-2-en-1-one] and `C=CC(=O)N1CCN(c2nc(OCCN(C)C)nc3c2CCN(c2cc(O)cc4ccccc24)C3)CC1` [Example 9, 1-(4-(2-(2-(dimethylamino)ethoxy)-7-(3-hydroxynaphthalen-1-yl)-5,6,7,8-tetrahydropyrido[3,4-d]pyrimidin-4-yl)piperazin-1-yl)prop-2-en-1-one] cannot be ordered by IC50: > 1000 nM for the first, > 1000 nM for the second.

`C=CC(=O)N1CCN(c2ncnc3c2CCN(c2c(C)ccc4[nH]ncc24)C3)CC1` [Example 7, 1-(4-(7-(5-methyl-1H-indazol-4-yl)-5,6,7,8-tetrahydropyrido[3,4-d]pyrimidin-4-yl)piperazin-1-yl)prop-2-en-1-one] and `C=CC(=O)N1CCN(c2nc(OCCCN(C)C)nc3c2CCN(c2cc(O)cc4ccccc24)C3)CC1` [Example 10, 1-(4-(2-(3-(dimethylamino)propoxy)-7-(3-hydroxynaphthalen-1-yl)-5,6,7,8-tetrahydropyrido[3,4-d]pyrimidin-4-yl)piperazin-1-yl)prop-2-en-1-one] cannot be ordered by IC50: > 1000 nM for the first, > 1000 nM for the second.

First: C=CC(=O)N1CCN(c2nc(O[C@@H](C)CN(C)C)nc3c2CCN(c2cc(O)cc4ccccc24)C3)CC1 [Example 8, (S)-1-(4-(2-((1-(dimethylamino)propan-2-yl)oxy)-7-(3-hydroxynaphthalen-1-yl)-5,6,7,8-tetrahydropyrido[3,4-d]pyrimidin-4-yl)piperazin-1-yl)prop-2-en-1-one]
Second: C=CC(=O)N1CCN(c2nc(OC(C)CN(C)C)nc3c2CCN(c2cc(O)cc4ccccc24)C3)CC1 (centres unmarked) [Example 11, 1-(4-(2-((1-(dimethylamino)propan-2-yl)oxy)-7-(3-hydroxynaphthalen-1-yl)-5,6,7,8-tetrahydropyrido[3,4-d]pyrimidin-4-yl)piperazin-1-yl)prop-2-en-1-one]
The IC50 of the first is higher: > 1000 nM for the first, 0.1 to 1000 nM for the second. The second is the more potent here.

Reference: patent publication US10689377B2 (Mirati Therapeutics, Inc., priority 2017, dated 2020)
